# Laboratory results taken from PubChem BioAssay (NCI).
#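 Following 48 hours of exposure in 96-well plates, responses at five concentrations were used to interpolate endpoints linearly. TGI denotes the concentration required for complete inhibition of growth.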
# What was measured:
# Assay in all cases: growth of human tumour cells (NCI), 48 h
# [1] = system: K-562 leukemia
# [2] = system: HOP-92 NSCLC
# [3] = system: TK-10 renal
# [4] = system: UO-31 renal
# [5] = system: ACHN renal
# [6] = system: NCI-H226 lung
# [7] = system: COLO 205 colon
# [8] = system: BT-549 breast
# [9] = system: HOP-62 NSCLC
# [10] = system: KM12 colon
# [11] = system: NCI-H522 lung
# [12] = system: NCI-H23 lung
# [13] = system: SK-MEL-5 melanoma
# [14] = system: SK-MEL-28 melanoma
# [15] = system: SNB-75 CNS
# [16] = system: NCI/ADR-RES ovarian
# [17] = system: OVCAR-8 ovarian
# [18] = system: NCI-H460 lung
# [19] = system: HCT-15 colon
# [20] = system: DU-145 prostate
# [21] = system: SF-268 CNS
# [22] = system: MDA-N
# [23] = system: SN12C renal
# [24] = system: SK-OV-3 ovarian
# [25] = system: OVCAR-4 ovarian
# [26] = system: IGROV1 ovarian
# [27] = system: OVCAR-3 ovarian
# [28] = system: SK-MEL-2 melanoma
# [29] = system: SF-295 CNS
# [30] = system: PC-3 prostate
# [31] = system: UACC-257 melanoma
# [32] = system: HCC-2998 colon
# [33] = system: MALME-3M melanoma
# [34] = system: LOX IMVI melanoma
# [35] = system: CAKI-1 renal
# [36] = system: MDA-MB-231 breast
# [37] = system: EKVX NSCLC
# [38] = system: MDA-MB-435
# [39] = system: HL-60(TB) leukemia
# [40] = system: SF-539 CNS
# [41] = system: CCRF-CEM leukemia
# [42] = system: HCT-116 colon
# [43] = system: OVCAR-5 ovarian
# [44] = system: SW-620 colon
# [45] = system: MOLT-4 leukemia
# [46] = system: U251 CNS
# [47] = system: MCF7 breast
# [48] = system: HT29 colon
# [49] = system: M14 melanoma
# [50] = system: 786-0 renal
# [51] = system: A549 NSCLC
# [52] = system: SNB-19 CNS
# [53] = system: T-47D breast
# [54] = system: A498 renal
# [55] = system: RPMI-8226 leukemia
# [56] = system: RXF 393 renal
# [57] = system: UACC-62 melanoma
# [58] = system: SR leukemia
# [59] = system: HS 578T breast
smiles,measurement,setting,value
Cn1c(CNc2ccc(-c3n[nH]c(=S)n3C)cc2)n[nH]c1=S,TGI,[1],> 100 µM
same,TGI,[2],> 100 µM
same,TGI,[3],> 100 µM
same,TGI,[4],> 100 µM
same,TGI,[5],> 100 µM
same,TGI,[6],> 100 µM
same,TGI,[7],> 100 µM
same,TGI,[8],> 100 µM
same,TGI,[9],> 100 µM
same,TGI,[10],> 100 µM
same,TGI,[11],> 100 µM
same,TGI,[12],> 100 µM
same,TGI,[13],> 100 µM
same,TGI,[14],> 100 µM
same,TGI,[15],> 100 µM
same,TGI,[16],> 100 µM
same,TGI,[17],> 100 µM
same,TGI,[18],> 100 µM
same,TGI,[19],> 100 µM
same,TGI,[20],> 100 µM
same,TGI,[21],> 100 µM
same,TGI,[22],> 100 µM
same,TGI,[23],> 100 µM
same,TGI,[24],> 100 µM
same,TGI,[25],> 100 µM
same,TGI,[26],> 100 µM
same,TGI,[27],> 100 µM
same,TGI,[28],> 100 µM
same,TGI,[29],> 100 µM
same,TGI,[30],> 100 µM
same,TGI,[31],> 100 µM
same,TGI,[32],> 100 µM
same,TGI,[33],> 100 µM
same,TGI,[34],> 100 µM
same,TGI,[35],> 100 µM
same,TGI,[36],> 100 µM
same,TGI,[37],> 100 µM
same,TGI,[38],> 100 µM
same,TGI,[39],> 100 µM
same,TGI,[40],> 100 µM
same,TGI,[41],> 100 µM
same,TGI,[42],> 100 µM
same,TGI,[43],> 100 µM
same,TGI,[44],> 100 µM
same,TGI,[45],> 100 µM
same,TGI,[46],> 100 µM
same,TGI,[47],> 100 µM
same,TGI,[48],> 100 µM
same,TGI,[49],> 100 µM
same,TGI,[50],> 100 µM
same,TGI,[51],> 100 µM
same,TGI,[52],> 100 µM
Cc1cc2nc3c(C#N)c(-c4ccccc4)/c(=C\Nc4ccc(F)cc4)c(=O)n3c2cc1C,TGI,[53],> 100 µM
same,TGI,[3],> 100 µM
same,TGI,[4],> 100 µM
same,TGI,[5],> 100 µM
same,TGI,[6],> 100 µM
same,TGI,[7],> 100 µM
same,TGI,[8],> 100 µM
same,TGI,[9],> 100 µM
same,TGI,[10],> 100 µM
same,TGI,[11],> 100 µM
same,TGI,[12],> 100 µM
same,TGI,[54],> 100 µM
same,TGI,[13],> 100 µM
same,TGI,[14],> 100 µM
same,TGI,[15],> 100 µM
same,TGI,[16],> 100 µM
same,TGI,[17],> 100 µM
same,TGI,[55],> 100 µM
same,TGI,[18],> 100 µM
same,TGI,[19],> 100 µM
same,TGI,[21],> 100 µM
same,TGI,[22],> 100 µM
same,TGI,[23],> 100 µM
same,TGI,[24],> 100 µM
same,TGI,[25],> 100 µM
same,TGI,[26],> 100 µM
same,TGI,[27],> 100 µM
same,TGI,[28],> 100 µM
same,TGI,[29],> 100 µM
same,TGI,[30],> 100 µM
same,TGI,[31],> 100 µM
same,TGI,[32],> 100 µM
same,TGI,[33],> 100 µM
same,TGI,[34],> 100 µM
same,TGI,[35],> 100 µM
same,TGI,[36],> 100 µM
same,TGI,[37],> 100 µM
same,TGI,[38],> 100 µM
same,TGI,[40],> 100 µM
same,TGI,[41],> 100 µM
same,TGI,[42],> 100 µM
same,TGI,[43],> 100 µM
same,TGI,[44],> 100 µM
same,TGI,[46],> 100 µM
same,TGI,[47],> 100 µM
same,TGI,[56],> 100 µM
same,TGI,[49],> 100 µM
same,TGI,[50],> 100 µM
same,TGI,[51],> 100 µM
same,TGI,[52],80.9 µM
NC1=NC2(COC(c3ccccc3)(c3ccccc3)c3ccccc3)OC(COC(c3ccccc3)(c3ccccc3)c3ccccc3)C(O)C2O1 (configuration not stated),TGI,[53],> 100 µM
same,TGI,[1],> 100 µM
same,TGI,[2],> 100 µM
same,TGI,[3],> 100 µM
same,TGI,[57],> 100 µM
same,TGI,[4],> 100 µM
same,TGI,[5],> 100 µM
same,TGI,[6],> 100 µM
same,TGI,[7],> 100 µM
same,TGI,[8],> 100 µM
same,TGI,[9],> 100 µM
same,TGI,[10],> 100 µM
same,TGI,[11],> 100 µM
same,TGI,[12],> 100 µM
same,TGI,[54],> 100 µM
same,TGI,[13],> 100 µM
same,TGI,[14],> 100 µM
same,TGI,[15],4.47 µM
same,TGI,[16],> 100 µM
same,TGI,[58],> 100 µM
same,TGI,[17],> 100 µM
same,TGI,[55],52.4 µM
same,TGI,[19],> 100 µM
same,TGI,[20],> 100 µM
same,TGI,[22],> 100 µM
same,TGI,[23],> 100 µM
same,TGI,[24],> 100 µM
same,TGI,[26],> 100 µM
same,TGI,[27],> 100 µM
same,TGI,[28],85.5 µM
same,TGI,[29],> 100 µM
same,TGI,[30],> 100 µM
same,TGI,[31],> 100 µM
same,TGI,[33],> 100 µM
same,TGI,[34],> 100 µM
same,TGI,[35],> 100 µM
same,TGI,[36],> 100 µM
same,TGI,[37],> 100 µM
same,TGI,[38],> 100 µM
same,TGI,[39],> 100 µM
same,TGI,[40],> 100 µM
same,TGI,[41],> 100 µM
same,TGI,[42],> 100 µM
same,TGI,[43],> 100 µM
same,TGI,[44],> 100 µM
same,TGI,[45],> 100 µM
same,TGI,[46],> 100 µM
same,TGI,[47],> 100 µM
same,TGI,[48],> 100 µM
same,TGI,[56],> 100 µM
same,TGI,[49],> 100 µM
same,TGI,[50],> 100 µM
same,TGI,[51],> 100 µM
same,TGI,[52],> 100 µM
CC(C)C(Cl)CCC(C)(Cl)C(=O)CBr (configuration not stated),TGI,[53],6.27 µM
same,TGI,[2],23.8 µM
same,TGI,[3],13.7 µM
same,TGI,[57],10.2 µM
same,TGI,[4],15 µM
same,TGI,[5],19.3 µM
same,TGI,[6],44.5 µM
same,TGI,[7],12 µM
same,TGI,[8],22.6 µM
same,TGI,[9],19.6 µM
same,TGI,[10],29.8 µM
same,TGI,[11],3.34 µM
same,TGI,[12],21.8 µM
same,TGI,[54],30.3 µM
same,TGI,[13],14.3 µM
same,TGI,[14],16.3 µM
same,TGI,[15],32.3 µM
same,TGI,[16],23.6 µM
same,TGI,[17],> 100 µM
same,TGI,[55],2.52 µM
same,TGI,[18],33.4 µM
same,TGI,[19],10.6 µM
same,TGI,[20],36.7 µM
same,TGI,[21],56 µM
same,TGI,[22],7.25 µM
same,TGI,[59],23.1 µM
same,TGI,[23],29.4 µM
same,TGI,[24],39.1 µM
same,TGI,[25],12.7 µM
same,TGI,[26],16.9 µM
same,TGI,[27],16.4 µM
same,TGI,[28],21.9 µM
same,TGI,[29],41.2 µM
same,TGI,[30],23.2 µM
same,TGI,[31],16.6 µM
same,TGI,[32],33.1 µM
same,TGI,[33],23 µM
same,TGI,[34],2.36 µM
same,TGI,[35],14.3 µM
same,TGI,[36],21.5 µM
same,TGI,[37],32.8 µM
same,TGI,[38],14 µM
same,TGI,[39],> 100 µM
same,TGI,[40],32.1 µM
same,TGI,[41],> 100 µM
same,TGI,[42],9.06 µM
same,TGI,[43],26.7 µM
same,TGI,[44],5.65 µM
same,TGI,[46],25.8 µM
same,TGI,[47],4.53 µM
same,TGI,[48],11.6 µM
same,TGI,[56],7.79 µM
same,TGI,[49],11.3 µM
same,TGI,[50],8.02 µM
same,TGI,[51],53.4 µM
same,TGI,[52],> 67.3 µM
